Patent US10315996B2, “ROR gamma (RORγ) modulators” (LEAD PHARMA HOLDING B.V., priority 2015, dated 2019)

Biological target: T1, RORγ (Homo sapiens, UniProt P51449)
T1 construct: expressed in transfected cells; host or cells: 293FT cells (Invitrogen), expression vector pFN26A (Promega)
T1 sequence (P51449 269-508 limits assumed): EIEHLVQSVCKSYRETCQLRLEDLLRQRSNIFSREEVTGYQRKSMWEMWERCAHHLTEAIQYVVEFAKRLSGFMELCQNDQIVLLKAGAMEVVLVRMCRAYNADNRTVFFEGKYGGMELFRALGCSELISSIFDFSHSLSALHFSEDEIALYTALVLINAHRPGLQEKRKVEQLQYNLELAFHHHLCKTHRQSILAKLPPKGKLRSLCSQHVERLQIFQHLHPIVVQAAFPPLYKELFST
Assay: RORγ GAL4 reporter gene assay
Assay type: cell-based
Settings: inhibition of RORγ activity, GAL4-RORγ-LBD luciferase reporter in 293FT cells, overnight incubation; read-out: mean pIC50 (converted)
Method in brief: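 293FT cells were transiently co-transfected with GAL4-DBD–RORγ-LBD (or GAL4-VP16 control) and a 9×UAS luc2P reporter, then plated at 60,000 cells/well. Compound was added at final 0.2% DMSO for 16-24 h at 37 °C, and inhibition was measured by firefly luciferase luminescence.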

Structure (SMILES) | IC50 [nM]
CCN(C(=O)c1ccc(NC(=O)Cc2ccc(S(=O)(=O)CC3CC3)cc2)cc1)c1cc(C)on1 [Example 89, 4-[2-(4-cyclopropylmethanesulfonylphenyl)acetamido]-N-ethyl-N-(5-methyl-1,2-oxazol-3-yl)benzamide] | ≤ 10
Cc1cc(N(C)C(=O)c2ccc(NC(=O)Cc3ccc(S(=O)(=O)CC4CC4)cc3)cc2)no1 [Example 90, 4-[2-(4-cyclopropylmethanesulfonylphenyl)acetamido]-N-methyl-N-(5-methyl-1,2-oxazol-3-yl)benzamide] | ≤ 10
Cc1cc(N(C)C(=O)c2ccc(NC(=O)Cc3ccc(S(=O)(=O)NC4CC4)cc3)cc2)no1 [Example 91, 4-{2-[4-(cyclopropylsulfamoyl)phenyl]acetamido}-N-methyl-N-(5-methyl-1,2-oxazol-3-yl)benzamide] | ≤ 1000
CCCN(C(=O)c1ccc(NC(=O)Cc2ccc(S(=O)(=O)NC3CC3)cc2)cc1)c1cc(C)nn1C [Example 92, 4-{2-[4-(cyclopropylsuIfamoyl)phenyl]acetamido}-N-(1,3-dimethyl-1H-pyrazol-5-yl)-N-propylbenzamide] | ≤ 10
CCCN(C(=O)c1ccc(NC(=O)Cc2ccc(S(=O)(=O)NC3CC3)cc2)cc1)c1cc(C)on1 [Example 93, 4-{2-[4-(cyclopropylsulfamoyl)phenyl]acetamido}-N-(5-methyl-1,2-oxazol-3-yl)-N-propylbenzamide] | ≤ 10
CCN(C(=O)c1ccc(NC(=O)Cc2ccc(S(=O)(=O)CC3CC3)cc2)cc1)c1cc(C)no1 [Example 94, 4-[2-(4-cyclopropylmethanesulfonylphenyl)acetamido]-N-ethyl-N-(3-methyl-1,2-oxazol-5-yl)benzamide] | ≤ 10
CCN(C(=O)c1ccc(NC(=O)Cc2ccc(S(=O)(=O)NC3CC3)cc2)cc1)c1cc(C)no1 [Example 95, 4-{2-[4-(cyclopropylsulfamoyl)phenyl]acetamido}-N-ethyl-N-(3-methyl-1,2-oxazol-5-yl)benzamide] | ≤ 100
CCN(C(=O)c1ccc(NC(=O)Cc2ccc(S(=O)(=O)CC3CC3)cc2)cc1)c1nnc(C)s1 [Example 96, 4-[2-(4-cyclopropylmethanesulfonylphenyl)acetamido]-N-ethyl-N-(5-methyl-1,3,4-thiadiazol-2-yl)benzamide] | ≤ 100
CCN(C(=O)c1ccc(NC(=O)Cc2ccc(S(=O)(=O)NC3CC3)cc2)cc1)c1nnc(C)s1 [Example 97, 4-{2-[4-(cyclopropylsulfamoyl)phenyl]acetamido}-N-ethyl-N-(5-methyl-1,3,4-thiadiazol-2-yl)benzamide] | ≤ 1000
CCN(C(=O)c1ccc(NC(=O)Cc2ccc(S(=O)(=O)CC3CC3)cc2)cc1F)c1ccccc1 [Example 99, 4-[2-(4-cyclopropylmethanesulfonylphenyl)acetamido]-N-ethyl-2-fluoro-N-phenylbenzamide] | ≤ 10
CCN(C(=O)c1ccc(NC(=O)Cc2ccc(S(=O)(=O)CC3CC3)cc2)cc1Cl)c1ccccc1 [Example 100, 2-chloro-4-[2-(4-cyclopropylmethanesulfonylphenyl)acetamido]-N-ethyl-N-phenylbenzamide] | ≤ 100
CCN(C(=O)c1ccc(NC(=O)Cc2ccc(S(=O)(=O)CC3CC3)cc2)c(OC)c1)c1ccccc1 [Example 101, 4-[2-(4-cyclopropylmethanesulfonylphenyl)acetamido]-N-ethyl-3-methoxy-N-phenylbenzamide] | ≤ 1000
CCN(C(=O)c1ccc(NC(=O)Cc2ccc(S(=O)(=O)CC3CC3)cc2)c(F)c1)c1ccccc1 [Example 102, 4-[2-(4-cyclopropylmethanesulfonylphenyl)acetamido]-N-ethyl-3-fluoro-N-phenylbenzamide] | ≤ 10
O=C(Cc1ccc(S(=O)(=O)CC2CC2)cc1)Nc1ccc(C(=O)N(CC(F)(F)F)c2ccccc2)cc1 [Example 104, 4-[2-(4-cyclopropylmethanesulfonylphenyl)acetamido]-N-phenyl-N-(2,2,2-trifluoroethyl)benzamide] | ≤ 10
CCN(C(=O)c1ccc(NC(=O)Cc2ccc(S(=O)(=O)CC3CC3)cc2)c(C)c1)c1ccccc1 [Example 105, 4-[2-(4-cyclopropylmethanesulfonylphenyl)acetamido]-N-ethyl-3-methyl-N-phenylbenzamide] | ≤ 100
CCN(C(=O)c1ccc(NC(=O)Cc2ccc(S(=O)(=O)NC3CC3)cc2)c(C)c1)c1ccccc1 [Example 106, 4-{2-[4-(cyclopropylsuIfamoyl)phenyl]acetamido}-N-ethyl-3-methyl-N-phenylbenzamide] | ≤ 1000
CCN(C(=O)c1ccc(NC(=O)Cc2ccc(S(=O)(=O)NC3CC3)cc2)cc1)c1nc(C)c(C)s1 [Example 107, 4-{2-[4-(cyclopropylsulfamoyl)phenyl]acetamido}-N-(4-methyl-5-methyl-1,3-thiazol-2-yl)-N-ethyl-benzamide] | ≤ 100

Structure (SMILES) | IC50 [nM]
CCN(C(=O)c1ccc(NC(=O)Cc2ccc(S(=O)(=O)CC3CC3)cc2)cc1)c1c(C)noc1C [Example 108, 4-[2-(4-cyclopropylmethanesulfonylphenyl)acetamido]-N-(dimethyl-1,2-oxazol-4-yl)-N-ethyl-benzamide] | ≤ 100
O=C(Cc1ccc(S(=O)(=O)NC2CC2)cc1)Nc1ccc(C(=O)N(CC(F)(F)F)c2ccccc2)cc1 [Example 109, 4-{2-[4-(cyclopropylsulfamoyl)phenyl]acetamido}-N-phenyl-N-(2,2,2-trifluoroethyl) benzamide] | ≤ 10
CCN(C(=O)c1ccc(NC(=O)Cc2ccc(S(=O)(=O)NC3CC3)cc2)cc1)c1c(C)noc1C [Example 110, 4-{2-[4-(cyclopropylsulfamoyl)phenyl]acetamido}-N-(dimethyl-1,2-oxazol-4-yl)-N-ethylbenzamide] | ≤ 1000
CCN(C(=O)c1ccc(NC(=O)Cc2ccc(S(=O)(=O)NC3CC3)cc2)cc1F)c1ccccc1 [Example 111, 4-{2-[4-(cyclopropylsulfamoyl)phenyl]acetamido}-N-ethyl-2-fluoro-N-phenylbenzamide] | ≤ 1000
CCN(C(=O)c1ccc(NC(=O)Cc2ccc(S(=O)(=O)NC3CC3)cc2)cc1Cl)c1ccccc1 [Example 112, 2-chloro-4-{2-[4-(cyclopropylsulfamoyl)phenyl]acetamido}-N-ethyl-N-phenylbenzamide] | ≤ 1000
CC(C)(C)N(Cc1ccccc1)C(=O)c1ccc(NC(=O)Cc2ccc(S(=O)(=O)CC3CC3)cc2)cc1 [Example 113, N-benzyl-N-tert-butyl-4-[2-(4-cyclopropylmethanesulfonylphenyl)acetamido]benzamide] | ≤ 10
O=C(Cc1ccc(S(=O)(=O)CC2CC2)cc1)Nc1ccc(C(=O)N(c2ccccc2)c2ccc(Br)cc2)cc1 [Example 115, N-(4-bromophenyl)-4-[2-(4-cyclopropylmethanesulfonylphenyl)acetamido]-N-phenylbenzamide] | ≤ 100
Cc1ccccc1N(C)C(=O)c1ccc(NC(=O)Cc2ccc(S(=O)(=O)CC3CC3)cc2)cc1F [Example 116, 4-[2-(4-cyclopropylmethanesulfonylphenyl)acetamido]-2-fluoro-N-methyl-N-(2-methylphenyl)benzamide] | ≤ 100
Cc1ccccc1N(C)C(=O)c1ccc(NC(=O)Cc2ccc(S(=O)(=O)CC3CC3)cc2)cc1Cl [Example 117, 2-chloro-4-[2-(4-cyclopropylmethanesulfonylphenyl)acetamido]-N-methyl-N-(2-methylphenyl)benzamide] | ≤ 10
CCN(C(=O)c1ccc(NC(=O)Cc2ccc(S(=O)(=O)CC3CC3)cc2)cc1F)c1ccccc1Cl [Example 118, N-(2-chlorophenyl)-4-[2-(4-cyclopropylmethanesulfonylphenyl)acetamido]-N-ethyl-2-fluorobenzamide] | ≤ 10
CCN(C(=O)c1ccc(NC(=O)Cc2ccc(S(=O)(=O)CC3CC3)cc2)cc1F)c1cccc(C)c1C [Example 119, 4-[2-(4-cyclopropylmethanesulfonylphenyl)acetamido]-N-(2,3-dimethylphenyl)-N-ethyl-2-fluorobenzamide] | ≤ 10
CCN(C(=O)c1ccc(NC(=O)Cc2ccc(S(=O)(=O)CC3CC3)cc2)cc1Cl)c1cccc(C)c1C [Example 120, 2-chloro-4-[2-(4-cyclopropylmethanesulfonylphenyl)acetamido]-N-(2,3-dimethylphenyl)-N-ethylbenzamide] | ≤ 100
CC(C)(C)C1COc2ccccc2N1C(=O)c1ccc(NC(=O)Cc2ccc(S(=O)(=O)CC3CC3)cc2)cc1 (stereo not drawn) [Example 121, N-[4-(3-tert-butyl-3,4-dihydro-2H-1,4-benzoxazine-4-carbonyl)phenyl]-2-(4-cyclopropylmethanesulfonylphenyl)acetamide] | ≤ 100
COc1ccccc1N(C)C(=O)c1ccc(NC(=O)Cc2ccc(S(=O)(=O)CC3CC3)cc2)cc1C [Example 122, 4-[2-(4-cyclopropylmethanesulfonylphenyl)acetamido]-N-(2-methoxyphenyl)-N,2-dimethylbenzamide] | ≤ 10
O=C(Cc1ccc(S(=O)(=O)CC2CC2)cc1)Nc1ccc(C(=O)N(CC(F)(F)F)c2ccccc2)c(Cl)c1 [Example 123, 2-chloro-4-[2-(4-cyclopropylmethanesulfonylphenyl)acetamido]-N-phenyl-N-(2,2,2-trifluoroethyl)benzamide] | ≤ 10
COc1ccccc1N(C)C(=O)c1ccc(NC(=O)Cc2ccc(S(=O)(=O)CC3CC3)cc2)cc1F [Example 124, 4-[2-(4-cyclopropylmethanesulfonylphenyl)acetamido]-2-fluoro-N-(2-methoxyphenyl)-N-methylbenzamide] | ≤ 10
